Experiments:
Assay in all cases: KINOMEscan competition binding
Settings in all cases: compound 10.0 µM
FGFR3 (human) = FGFR3 (human) (UniProt P22607)
AKT1 (human) = AKT1 (human) (UniProt P31749)
[1] = tested on: ABL1 (human), P00519 [T315I]
MAP3K12 (human) = MAP3K12 (human) (UniProt Q12852)
[2] = tested on: EGFR (human), P00533 [G719C; 746-750 del]
[3] = tested on: FGFR3 (human), P22607 [G697C]
MAPK12 (human) = MAPK12 (human) (UniProt P53778)
RPS6KA5 KD1 (human) = RPS6KA5 KD1 (human) (UniProt O75582)
CDC42BPG (human) = CDC42BPG (human) (UniProt Q6DT37)
FES (human) = FES (human) (UniProt P07332)
TESK1 (human) = TESK1 (human) (UniProt Q15569)
MARK4 (human) = MARK4 (human) (UniProt Q96L34)
Sequence of MARK4 (human) (Q96L34 whole entry, looked up): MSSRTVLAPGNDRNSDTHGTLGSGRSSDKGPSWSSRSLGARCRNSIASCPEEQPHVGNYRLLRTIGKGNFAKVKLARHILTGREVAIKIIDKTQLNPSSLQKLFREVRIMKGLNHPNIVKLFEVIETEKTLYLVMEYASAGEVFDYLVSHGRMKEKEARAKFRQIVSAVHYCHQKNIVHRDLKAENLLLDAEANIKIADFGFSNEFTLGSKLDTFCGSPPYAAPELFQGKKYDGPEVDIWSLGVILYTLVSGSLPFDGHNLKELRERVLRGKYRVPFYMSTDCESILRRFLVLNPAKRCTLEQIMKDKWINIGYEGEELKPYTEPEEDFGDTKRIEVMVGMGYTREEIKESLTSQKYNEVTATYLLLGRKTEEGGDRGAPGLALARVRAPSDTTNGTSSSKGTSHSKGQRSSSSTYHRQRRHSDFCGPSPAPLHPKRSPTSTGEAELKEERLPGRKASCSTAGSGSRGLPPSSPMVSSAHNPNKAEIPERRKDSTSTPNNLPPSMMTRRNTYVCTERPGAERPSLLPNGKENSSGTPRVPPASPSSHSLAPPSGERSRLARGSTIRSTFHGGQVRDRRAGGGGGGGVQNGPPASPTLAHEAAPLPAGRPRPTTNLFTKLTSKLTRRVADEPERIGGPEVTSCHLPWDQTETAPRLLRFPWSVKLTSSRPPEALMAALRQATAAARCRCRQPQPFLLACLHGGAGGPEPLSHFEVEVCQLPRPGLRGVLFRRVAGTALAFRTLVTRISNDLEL

CDK14 (human) = CDK14 (human) (UniProt O94921)
Sequence of CDK14 (human) (O94921 whole entry, looked up): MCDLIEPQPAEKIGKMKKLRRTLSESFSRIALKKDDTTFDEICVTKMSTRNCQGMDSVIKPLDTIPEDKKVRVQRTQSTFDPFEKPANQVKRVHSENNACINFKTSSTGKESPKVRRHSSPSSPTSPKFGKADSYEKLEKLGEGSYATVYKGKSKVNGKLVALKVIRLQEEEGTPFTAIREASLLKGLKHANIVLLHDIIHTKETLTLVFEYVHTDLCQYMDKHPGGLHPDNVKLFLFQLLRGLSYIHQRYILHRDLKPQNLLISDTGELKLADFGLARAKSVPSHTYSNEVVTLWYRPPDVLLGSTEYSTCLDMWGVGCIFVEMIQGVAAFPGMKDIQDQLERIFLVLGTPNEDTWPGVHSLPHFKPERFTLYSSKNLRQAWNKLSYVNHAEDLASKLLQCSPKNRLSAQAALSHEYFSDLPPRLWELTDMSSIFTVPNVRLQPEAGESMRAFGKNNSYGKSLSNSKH

DCLK1 (human) = DCLK1 (human) (UniProt O15075)
PAK1 (human) = PAK1 (human) (UniProt Q13153)
IKBKE (human) = IKBKE (human) (UniProt Q14164)
AKT3 (human) = AKT3 (human) (UniProt Q9Y243)
PRKAA2 (human) = PRKAA2 (human) (UniProt P54646)
MAP3K10 (human) = MAP3K10 (human) (UniProt Q02779)
MAPK1 (human) = MAPK1 (human) (UniProt P28482)
EPHB3 (human) = EPHB3 (human) (UniProt P54753)
NLK (human) = NLK (human) (UniProt Q9UBE8)
NUAK1 (human) = NUAK1 (human) (UniProt O60285)
FGFR4 (human) = FGFR4 (human) (UniProt P22455)
ALK (human) = ALK (human) (UniProt Q9UM73)
PTK2 (human) = PTK2 (human) (UniProt Q05397)
Sequence of PTK2 (human) (Q05397 whole entry, looked up): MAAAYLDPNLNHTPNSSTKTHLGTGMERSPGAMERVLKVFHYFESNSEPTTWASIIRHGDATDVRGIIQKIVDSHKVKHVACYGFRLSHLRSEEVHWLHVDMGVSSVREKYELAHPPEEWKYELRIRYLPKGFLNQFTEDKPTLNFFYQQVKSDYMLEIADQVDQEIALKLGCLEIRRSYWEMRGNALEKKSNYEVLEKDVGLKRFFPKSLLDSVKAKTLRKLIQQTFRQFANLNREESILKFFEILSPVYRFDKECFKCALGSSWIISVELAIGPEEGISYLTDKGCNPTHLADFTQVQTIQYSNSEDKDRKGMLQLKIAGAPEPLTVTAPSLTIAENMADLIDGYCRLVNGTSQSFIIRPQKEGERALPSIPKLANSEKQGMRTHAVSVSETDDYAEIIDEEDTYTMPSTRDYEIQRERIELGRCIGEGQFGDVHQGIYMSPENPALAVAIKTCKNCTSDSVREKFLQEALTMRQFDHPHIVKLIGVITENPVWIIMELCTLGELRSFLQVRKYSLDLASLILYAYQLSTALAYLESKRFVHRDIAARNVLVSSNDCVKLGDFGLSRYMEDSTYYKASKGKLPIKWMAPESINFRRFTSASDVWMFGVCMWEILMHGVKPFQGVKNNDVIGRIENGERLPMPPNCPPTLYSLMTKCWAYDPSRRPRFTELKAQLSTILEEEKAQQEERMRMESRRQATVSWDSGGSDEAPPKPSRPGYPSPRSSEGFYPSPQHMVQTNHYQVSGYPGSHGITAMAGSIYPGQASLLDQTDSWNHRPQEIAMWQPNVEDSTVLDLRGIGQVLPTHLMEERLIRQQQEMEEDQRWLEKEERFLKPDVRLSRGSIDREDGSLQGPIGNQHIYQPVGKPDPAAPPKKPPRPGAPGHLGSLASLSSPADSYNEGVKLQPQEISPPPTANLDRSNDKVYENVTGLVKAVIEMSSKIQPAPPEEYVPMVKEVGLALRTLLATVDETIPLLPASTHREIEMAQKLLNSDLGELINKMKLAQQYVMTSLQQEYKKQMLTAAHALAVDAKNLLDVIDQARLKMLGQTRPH

CDC42BPB (human) = CDC42BPB (human) (UniProt Q9Y5S2)
MAPK13 (human) = MAPK13 (human) (UniProt O15264)
Sequence of MAPK13 (human) (O15264 whole entry, looked up): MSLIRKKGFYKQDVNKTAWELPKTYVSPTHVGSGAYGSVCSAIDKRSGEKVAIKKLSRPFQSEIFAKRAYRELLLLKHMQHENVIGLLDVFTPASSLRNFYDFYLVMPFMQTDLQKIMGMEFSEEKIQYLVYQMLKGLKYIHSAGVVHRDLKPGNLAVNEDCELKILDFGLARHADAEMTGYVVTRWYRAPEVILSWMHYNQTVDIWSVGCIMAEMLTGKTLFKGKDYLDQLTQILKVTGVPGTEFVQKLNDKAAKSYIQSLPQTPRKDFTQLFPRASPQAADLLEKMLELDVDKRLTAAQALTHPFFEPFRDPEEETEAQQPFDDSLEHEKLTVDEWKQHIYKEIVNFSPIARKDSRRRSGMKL

[4] = tested on: ABL1 (human), P00519 [E255K]
CAMK2B (human) = CAMK2B (human) (UniProt Q13554)
Sequence of CAMK2B (human) (Q13554 whole entry, looked up): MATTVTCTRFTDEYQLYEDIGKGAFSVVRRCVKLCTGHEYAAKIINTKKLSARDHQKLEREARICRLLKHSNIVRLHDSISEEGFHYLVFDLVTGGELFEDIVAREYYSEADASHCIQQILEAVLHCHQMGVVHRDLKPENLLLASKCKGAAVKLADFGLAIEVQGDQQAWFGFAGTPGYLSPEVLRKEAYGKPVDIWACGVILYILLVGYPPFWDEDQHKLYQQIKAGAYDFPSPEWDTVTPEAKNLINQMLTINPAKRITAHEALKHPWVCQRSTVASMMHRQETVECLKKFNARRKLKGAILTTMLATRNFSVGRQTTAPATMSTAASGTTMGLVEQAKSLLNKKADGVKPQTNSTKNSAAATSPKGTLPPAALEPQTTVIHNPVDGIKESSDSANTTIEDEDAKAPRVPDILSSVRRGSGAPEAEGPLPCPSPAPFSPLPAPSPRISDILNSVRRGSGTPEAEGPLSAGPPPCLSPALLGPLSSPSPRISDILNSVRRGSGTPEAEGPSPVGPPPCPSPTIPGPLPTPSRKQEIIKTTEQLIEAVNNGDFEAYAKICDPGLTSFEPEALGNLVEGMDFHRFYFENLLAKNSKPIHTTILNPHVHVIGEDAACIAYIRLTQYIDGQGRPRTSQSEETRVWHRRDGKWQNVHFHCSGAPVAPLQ

EPHA2 (human) = EPHA2 (human) (UniProt P29317)
EPHA1 (human) = EPHA1 (human) (UniProt P21709)
TLK2 (human) = TLK2 (human) (UniProt Q86UE8)
EPHA6 (human) = EPHA6 (human) (UniProt Q9UF33)
CDK15 (human) = CDK15 (human) (UniProt Q96Q40)
ITK (human) = ITK (human) (UniProt Q08881)
Sequence of ITK (human) (Q08881 whole entry, looked up): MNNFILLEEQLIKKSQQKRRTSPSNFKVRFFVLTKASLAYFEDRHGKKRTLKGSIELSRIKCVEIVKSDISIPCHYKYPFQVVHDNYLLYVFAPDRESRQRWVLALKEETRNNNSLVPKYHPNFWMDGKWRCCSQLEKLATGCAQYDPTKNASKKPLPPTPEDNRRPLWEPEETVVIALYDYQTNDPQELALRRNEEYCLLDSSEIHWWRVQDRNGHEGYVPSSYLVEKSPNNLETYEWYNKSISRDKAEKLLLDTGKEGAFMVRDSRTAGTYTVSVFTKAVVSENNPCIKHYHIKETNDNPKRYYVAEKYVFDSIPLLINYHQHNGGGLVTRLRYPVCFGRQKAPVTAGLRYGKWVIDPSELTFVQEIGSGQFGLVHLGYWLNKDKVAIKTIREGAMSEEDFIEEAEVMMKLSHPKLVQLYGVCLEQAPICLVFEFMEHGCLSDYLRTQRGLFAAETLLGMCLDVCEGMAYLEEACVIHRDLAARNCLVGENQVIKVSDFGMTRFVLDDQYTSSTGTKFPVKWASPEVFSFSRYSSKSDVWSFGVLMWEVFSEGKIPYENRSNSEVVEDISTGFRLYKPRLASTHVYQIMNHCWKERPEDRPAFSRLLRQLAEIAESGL

ABL2 (human) = ABL2 (human) (UniProt P42684)
DDR2 (human) = DDR2 (human) (UniProt Q16832)
LCK (human) = LCK (human) (UniProt P06239)
PAK4 (human) = PAK4 (human) (UniProt O96013)
EPHA7 (human) = EPHA7 (human) (UniProt Q15375)
Sequence of EPHA7 (human) (Q15375 whole entry, looked up): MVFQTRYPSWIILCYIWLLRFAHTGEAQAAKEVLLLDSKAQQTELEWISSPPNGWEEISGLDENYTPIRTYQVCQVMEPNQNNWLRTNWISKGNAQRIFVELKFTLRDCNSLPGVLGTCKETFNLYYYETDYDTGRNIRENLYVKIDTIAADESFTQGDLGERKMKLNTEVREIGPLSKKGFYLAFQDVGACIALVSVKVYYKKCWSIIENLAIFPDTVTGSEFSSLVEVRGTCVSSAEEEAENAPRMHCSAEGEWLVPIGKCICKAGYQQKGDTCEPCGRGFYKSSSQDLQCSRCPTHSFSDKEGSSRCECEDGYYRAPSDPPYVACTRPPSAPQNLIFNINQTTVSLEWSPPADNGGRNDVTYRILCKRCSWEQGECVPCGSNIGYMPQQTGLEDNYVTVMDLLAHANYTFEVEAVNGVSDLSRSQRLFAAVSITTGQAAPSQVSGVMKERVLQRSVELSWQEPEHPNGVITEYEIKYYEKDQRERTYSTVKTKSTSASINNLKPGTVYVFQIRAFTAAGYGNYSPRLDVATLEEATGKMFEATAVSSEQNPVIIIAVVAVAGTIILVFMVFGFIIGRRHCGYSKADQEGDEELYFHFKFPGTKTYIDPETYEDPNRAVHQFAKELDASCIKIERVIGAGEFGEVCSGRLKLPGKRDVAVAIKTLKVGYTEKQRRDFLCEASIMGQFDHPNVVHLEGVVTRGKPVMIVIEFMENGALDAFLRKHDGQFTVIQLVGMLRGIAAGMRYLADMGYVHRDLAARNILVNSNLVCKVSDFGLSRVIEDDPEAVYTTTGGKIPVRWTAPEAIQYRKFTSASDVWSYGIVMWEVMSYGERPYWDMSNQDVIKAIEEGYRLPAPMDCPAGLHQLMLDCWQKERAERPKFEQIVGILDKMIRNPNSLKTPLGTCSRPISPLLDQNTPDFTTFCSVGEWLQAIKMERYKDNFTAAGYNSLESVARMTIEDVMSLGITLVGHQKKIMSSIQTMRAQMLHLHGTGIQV

STK25 (human) = STK25 (human) (UniProt O00506)

SMILES: CN1C(=O)c2ccccc2N(C)c2nc(Nc3ccc(N4CCC(O)CC4)cc3)ncc21
- kinase still bound, per cent of control (FGFR3 (human)): 62%
- kinase still bound, per cent of control (AKT1 (human)): 100%
- kinase still bound, per cent of control [1]: 3.6%
- kinase still bound, per cent of control (MAP3K12 (human)): 85%
- kinase still bound, per cent of control [2]: 100%
- kinase still bound, per cent of control [3]: 81%
- kinase still bound, per cent of control (MAPK12 (human)): 100%
- kinase still bound, per cent of control (RPS6KA5 KD1 (human)): 100%
- kinase still bound, per cent of control (CDC42BPG (human)): 100%
- kinase still bound, per cent of control (FES (human)): 100%
- kinase still bound, per cent of control (TESK1 (human)): 97%
- kinase still bound, per cent of control (MARK4 (human)): 66%
- kinase still bound, per cent of control (CDK14 (human)): 100%
- kinase still bound, per cent of control (DCLK1 (human)): 1.8%
- kinase still bound, per cent of control (PAK1 (human)): 100%
- kinase still bound, per cent of control (IKBKE (human)): 87%
- kinase still bound, per cent of control (AKT3 (human)): 100%
- kinase still bound, per cent of control (PRKAA2 (human)): 31%
- kinase still bound, per cent of control (MAP3K10 (human)): 100%
- kinase still bound, per cent of control (MAPK1 (human)): 100%
- kinase still bound, per cent of control (EPHB3 (human)): 100%
- kinase still bound, per cent of control (NLK (human)): 74%
- kinase still bound, per cent of control (NUAK1 (human)): 17%
- kinase still bound, per cent of control (FGFR4 (human)): 73%
- kinase still bound, per cent of control (ALK (human)): 100%
- kinase still bound, per cent of control (PTK2 (human)): 75%
- kinase still bound, per cent of control (CDC42BPB (human)): 100%
- kinase still bound, per cent of control (MAPK13 (human)): 100%
- kinase still bound, per cent of control [4]: 0.6%
- kinase still bound, per cent of control (CAMK2B (human)): 100%
- kinase still bound, per cent of control (EPHA2 (human)): 99%
- kinase still bound, per cent of control (EPHA1 (human)): 100%
- kinase still bound, per cent of control (TLK2 (human)): 100%
- kinase still bound, per cent of control (EPHA6 (human)): 100%
- kinase still bound, per cent of control (CDK15 (human)): 100%
- kinase still bound, per cent of control (ITK (human)): 96%
- kinase still bound, per cent of control (ABL2 (human)): 33%
- kinase still bound, per cent of control (DDR2 (human)): 96%
- kinase still bound, per cent of control (LCK (human)): 50%
- kinase still bound, per cent of control (PAK4 (human)): 97%
- kinase still bound, per cent of control (EPHA7 (human)): 100%
- kinase still bound, per cent of control (STK25 (human)): 96%

SMILES: CN1C(=O)c2ccccc2N(C)c2nc(NS(=O)(=O)c3ccc(N)cc3)ncc21
- kinase still bound, per cent of control (FGFR3 (human)): 100%
- kinase still bound, per cent of control (AKT1 (human)): 100%
- kinase still bound, per cent of control [1]: 97%
- kinase still bound, per cent of control (MAP3K12 (human)): 90%
- kinase still bound, per cent of control [2]: 100%
- kinase still bound, per cent of control [3]: 100%
- kinase still bound, per cent of control (MAPK12 (human)): 100%
- kinase still bound, per cent of control (RPS6KA5 KD1 (human)): 99%
- kinase still bound, per cent of control (CDC42BPG (human)): 100%
- kinase still bound, per cent of control (FES (human)): 90%
- kinase still bound, per cent of control (TESK1 (human)): 100%
- kinase still bound, per cent of control (MARK4 (human)): 93%
- kinase still bound, per cent of control (CDK14 (human)): 100%
- kinase still bound, per cent of control (DCLK1 (human)): 39%
- kinase still bound, per cent of control (PAK1 (human)): 100%
- kinase still bound, per cent of control (IKBKE (human)): 100%
- kinase still bound, per cent of control (AKT3 (human)): 88%
- kinase still bound, per cent of control (PRKAA2 (human)): 96%
- kinase still bound, per cent of control (MAP3K10 (human)): 100%
- kinase still bound, per cent of control (MAPK1 (human)): 100%
- kinase still bound, per cent of control (EPHB3 (human)): 100%
- kinase still bound, per cent of control (NLK (human)): 100%
- kinase still bound, per cent of control (NUAK1 (human)): 86%
- kinase still bound, per cent of control (FGFR4 (human)): 100%
- kinase still bound, per cent of control (ALK (human)): 100%
- kinase still bound, per cent of control (PTK2 (human)): 100%
- kinase still bound, per cent of control (CDC42BPB (human)): 100%
- kinase still bound, per cent of control (MAPK13 (human)): 90%
- kinase still bound, per cent of control [4]: 100%
- kinase still bound, per cent of control (CAMK2B (human)): 100%
- kinase still bound, per cent of control (EPHA2 (human)): 100%
- kinase still bound, per cent of control (EPHA1 (human)): 100%
- kinase still bound, per cent of control (TLK2 (human)): 100%
- kinase still bound, per cent of control (EPHA6 (human)): 100%
- kinase still bound, per cent of control (CDK15 (human)): 100%
- kinase still bound, per cent of control (ITK (human)): 100%
- kinase still bound, per cent of control (ABL2 (human)): 100%
- kinase still bound, per cent of control (DDR2 (human)): 98%
- kinase still bound, per cent of control (LCK (human)): 100%
- kinase still bound, per cent of control (PAK4 (human)): 100%
- kinase still bound, per cent of control (EPHA7 (human)): 100%
- kinase still bound, per cent of control (STK25 (human)): 100%

SMILES: COc1cc(N2CCN(C)CC2)ccc1Nc1ncc2c(n1)Nc1ccccc1NC2=O
- kinase still bound, per cent of control (FGFR3 (human)): 97%
- kinase still bound, per cent of control (AKT1 (human)): 100%
- kinase still bound, per cent of control [1]: 46%
- kinase still bound, per cent of control (MAP3K12 (human)): 100%
- kinase still bound, per cent of control [2]: 39%
- kinase still bound, per cent of control [3]: 84%
- kinase still bound, per cent of control (MAPK12 (human)): 81%
- kinase still bound, per cent of control (RPS6KA5 KD1 (human)): 90%
- kinase still bound, per cent of control (CDC42BPG (human)): 100%
- kinase still bound, per cent of control (FES (human)): 100%
- kinase still bound, per cent of control (TESK1 (human)): 100%
- kinase still bound, per cent of control (MARK4 (human)): 84%
- kinase still bound, per cent of control (CDK14 (human)): 100%
- kinase still bound, per cent of control (DCLK1 (human)): 59%
- kinase still bound, per cent of control (PAK1 (human)): 82%
- kinase still bound, per cent of control (IKBKE (human)): 97%
- kinase still bound, per cent of control (AKT3 (human)): 100%
- kinase still bound, per cent of control (PRKAA2 (human)): 84%
- kinase still bound, per cent of control (MAP3K10 (human)): 100%
- kinase still bound, per cent of control (MAPK1 (human)): 94%
- kinase still bound, per cent of control (EPHB3 (human)): 93%
- kinase still bound, per cent of control (NLK (human)): 100%
- kinase still bound, per cent of control (NUAK1 (human)): 63%
- kinase still bound, per cent of control (FGFR4 (human)): 100%
- kinase still bound, per cent of control (ALK (human)): 53%
- kinase still bound, per cent of control (PTK2 (human)): 73%
- kinase still bound, per cent of control (CDC42BPB (human)): 100%
- kinase still bound, per cent of control (MAPK13 (human)): 100%
- kinase still bound, per cent of control [4]: 19%
- kinase still bound, per cent of control (CAMK2B (human)): 98%
- kinase still bound, per cent of control (EPHA2 (human)): 100%
- kinase still bound, per cent of control (EPHA1 (human)): 74%
- kinase still bound, per cent of control (TLK2 (human)): 100%
- kinase still bound, per cent of control (EPHA6 (human)): 100%
- kinase still bound, per cent of control (CDK15 (human)): 58%
- kinase still bound, per cent of control (ITK (human)): 100%
- kinase still bound, per cent of control (ABL2 (human)): 79%
- kinase still bound, per cent of control (DDR2 (human)): 100%
- kinase still bound, per cent of control (LCK (human)): 28%
- kinase still bound, per cent of control (PAK4 (human)): 94%
- kinase still bound, per cent of control (EPHA7 (human)): 100%
- kinase still bound, per cent of control (STK25 (human)): 84%

Source: the kinase profiling compilation of Christmann-Franck et al. (2016)
